# Measurements as given in patent publication US20180085330A1, “Dose Adjustment” (AbbVie Inc., priority 2016, published 2018).
# Like-named read-outs stand apart in the source and are kept apart here.
# Tests used:
# [1] = Drug interaction studies: pharmacokinetic parameters of coadministered drug in the presence of glecaprevir/pibrentasvir; type: in vivo, human
# Method: Drug interaction studies were performed with glecaprevir/pibrentasvir and other drugs that are likely to be coadministered and with drugs commonly used as probes for pharmacokinetic interactions.
# [2] = cited from earlier work
# [3] = valsartan 80 mg single dose, GLE/PIB 300/120 mg once daily
# [4] = EVG/COBI/FTC/TAF 150/150/200/10 mg once daily, GLE/PIB 300/120 mg once daily
# [5] = EE/Levonorgestrel 20 μg/100 μg once daily, GLE/PIB 300/120 mg once daily
# [6] = EE/Norgestimate 35 μg/250 μg once daily, GLE/PIB 300/120 mg once daily
# [7] = sofosbuvir 400 mg once daily, GLE/PIB 400/120 mg once daily
# [8] = EFV/FTC/TDF 300/200/300 mg once daily, GLE/PIB 300/120 mg once daily
# [9] = tacrolimus 1 mg single dose, GLE/PIB 300/120 mg once daily
# [10] = lovastatin 10 mg once daily, GLE/PIB 300/120 mg once daily
# [11] = rilpivirine 25 mg once daily, GLE/PIB 300/120 mg once daily
# [12] = omeprazole 20 mg single dose, GLE/PIB 300/120 mg once daily
# [13] = pravastatin 10 mg once daily, GLE/PIB 400/120 mg once daily
# [14] = pravastatin coadministered with clarithromycin
# [15] = simvastatin 5 mg once daily, GLE/PIB 300/120 mg once daily
# [16] = rosuvastatin 5 mg once daily, GLE/PIB 400/120 mg once daily
# [17] = rosuvastatin coadministered with lopinavir/ritonavir
# [18] = dabigatran etexilate 150 mg single dose, GLE/PIB 300/120 mg once daily
# [19] = losartan 50 mg single dose, GLE/PIB 300/120 mg once daily
# [20] = dextromethorphan hydrobromide 30 mg single dose, GLE/PIB 300/120 mg once daily
# [21] = raltegravir 400 mg twice daily, GLE/PIB 300/120 mg once daily
structure (smiles),measurement,setting,value
CCCCC(=O)N(Cc1ccc(-c2ccccc2-c2nnn[nH]2)cc1)[C@H](C(=O)O)C(C)C [Valsartan],Central Value Ratio (90% CI) AUC,[1]; [3],1.31
same,Central Value Ratio (90% CI) Cmax,[1]; [3],1.36
COc1cc2c(cc1Cc1cccc(Cl)c1F)c(=O)c(C(=O)O)cn2[C@H](CO)C(C)C [Elvitegravir],Central Value Ratio (90% CI) AUC,[1]; [4],1.47
same,Central Value Ratio (90% CI) Cmax,[1]; [4],1.36
same,Central Value Ratio (90% CI) Cmin,[1]; [4],1.71
Cc1ncc2n1-c1ccc(Cl)cc1C(c1ccccc1F)=NC2 [Midazolam],Central Value Ratio (90% CI) AUC,"[1]; midazolam 1 mg single dose, GLE/PIB 300/120 mg once dally",1.27
C#CC1(O)CC[C@H]2[C@@H]3CCC4=CC(=O)CC[C@@H]4[C@H]3CC[C@@]21CC (mixture of isomers) [Norgestrel],Central Value Ratio (90% CI) AUC,[1]; [5],1.68
same,Central Value Ratio (90% CI) Cmax,[1]; [5],1.37
same,Central Value Ratio (90% CI) Cmin,[1]; [5],1.77
same,Central Value Ratio (90% CI) AUC,[1]; [6],1.63
same,Central Value Ratio (90% CI) Cmax,[1]; [6],1.54
same,Central Value Ratio (90% CI) Cmin,[1]; [6],1.75
C[C@@]1(F)[C@H](O)[C@@H](CO)O[C@H]1n1ccc(=O)[nH]c1=O [GS-331007],Central Value Ratio (90% CI) Cmin,[1]; [7],1.85
C#C[C@]1(O)CC[C@H]2[C@@H]3CCC4=CC(=NO)CC[C@@H]4[C@H]3CC[C@@]21CC (mixture of isomers) [Norgestromin],Central Value Ratio (90% CI) AUC,[1]; [6],1.44
same,Central Value Ratio (90% CI) Cmin,[1]; [6],1.45
C[C@H](Cn1cnc2c(N)ncnc21)OCP(=O)(O)O [Tenofovir],Central Value Ratio (90% CI) AUC,[1]; [8],1.29
same,Central Value Ratio (90% CI) Cmin,[1]; [8],1.38
CC(C)OC(=O)[C@H](C)N[P@](=O)(OC[C@H]1O[C@@H](n2ccc(=O)[nH]c2=O)[C@](C)(F)[C@@H]1O)Oc1ccccc1 [Sofosbuvir],Central Value Ratio (90% CI) AUC,[1]; [7],2.25
same,Central Value Ratio (90% CI) Cmax,[1]; [7],1.66
C=CC[C@@H]1/C=C(\C)C[C@H](C)C[C@H](OC)[C@H]2O[C@@](O)(C(=O)C(=O)N3CCCC[C@H]3C(=O)O[C@H](/C(C)=C/[C@@H]3CC[C@@H](O)[C@H](OC)C3)[C@H](C)[C@@H](O)CC1=O)[C@H](C)C[C@@H]2OC [Tacrolimus],Central Value Ratio (90% CI) AUC,[1]; [9],1.45
same,Central Value Ratio (90% CI) Cmax,[1]; [9],1.50
CC[C@H](C)C(=O)O[C@H]1C[C@@H](C)C=C2C=C[C@H](C)[C@H](CC[C@@H]3C[C@@H](O)CC(=O)O3)[C@H]21 [lovastatin],Central Value Ratio (90% CI) AUC,[1]; [10],1.70
Cc1cc(/C=C/C#N)cc(C)c1Nc1ccnc(Nc2ccc(C#N)cc2)n1 [Rilpivirine],Central Value Ratio (90% CI) AUC,[1]; [11],1.84
same,Central Value Ratio (90% CI) Cmax,[1]; [11],2.05
same,Central Value Ratio (90% CI) Cmin,[1]; [11],1.77
COc1ccc2[nH]c([S+]([O-])Cc3ncc(C)c(OC)c3C)nc2c1 (stereo not shown) [Omeprazole],Central Value Ratio (90% CI) AUC,[1]; [12],0.79
same,Central Value Ratio (90% CI) Cmax,[1]; [12],0.57
CC[C@H](C)C(=O)O[C@H]1C[C@H](O)C=C2C=C[C@H](C)[C@H](CC[C@@H](O)C[C@@H](O)CC(=O)O)[C@H]21 [pravastatin],Central Value Ratio (90% CI) AUC,[1]; [13],2.30
same,Central Value Ratio (90% CI) Cmax,[1]; [13],2.23
same,AUC increase,[2]; [14],2.3 fold
same,Cmax increase,[2]; [14],2.1 fold
CCC(C)(C)C(=O)O[C@H]1C[C@@H](C)C=C2C=C[C@H](C)[C@H](CC[C@@H]3C[C@@H](O)CC(=O)O3)[C@H]21 [simvastatin],Central Value Ratio (90% CI) AUC,[1]; [15],2.32
same,Central Value Ratio (90% CI) Cmax,[1]; [15],1.99
CC(C)c1nc(N(C)S(C)(=O)=O)nc(-c2ccc(F)cc2)c1/C=C/[C@@H](O)C[C@@H](O)CC(=O)O [rosuvastatin],Central Value Ratio (90% CI) AUC,[1]; [16],2.15
same,Central Value Ratio (90% CI) Cmax,[1]; [16],5.62
same,AUC increase,[2]; [17],2.1 fold
same,Cmax increase,[2]; [17],5 fold
[H]/N=C(/N)c1ccc(NCc2nc3cc(C(=O)N(CCC(=O)O)c4ccccn4)ccc3n2C)cc1 [dabigatran],Central Value Ratio (90% CI) AUC,[1]; [18],2.38
same,Central Value Ratio (90% CI) Cmax,[1]; [18],2.05
CCC(C)(C)C(=O)O[C@H]1C[C@@H](C)C=C2C=C[C@H](C)[C@H](CC[C@@H](O)C[C@@H](O)CC(=O)O)[C@H]21 [Simvastatin acid],Central Value Ratio (90% CI) AUC,[1]; [15],4.48
same,Central Value Ratio (90% CI) Cmax,[1]; [15],10.7
Nc1nc(NC2CC2)c2ncn([C@H]3C=C[C@@H](CO)C3)c2n1 [Abacavir],Central Value Ratio (90% CI) Cmin,"[1]; ABC/DTG/3TC 600/50/300 mg once daily, GLE/PIB 300/120 mg once daily",1.31
Cn1c(=O)c2c(ncn2C)n(C)c1=O [Caffeine],Central Value Ratio (90% CI) AUC,"[1]; caffeine 100 mg single dose, GLE/PIB 300/120 mg once daily",1.35
CCCCc1nc(Cl)c(CO)n1Cc1ccc(-c2ccccc2-c2nn[nH]n2)cc1 [Losartan],Central Value Ratio (90% CI) AUC,[1]; [19],1.56
same,Central Value Ratio (90% CI) Cmax,[1]; [19],2.51
"C#C[C@]1(O)CC[C@H]2[C@@H]3CCc4cc(O)ccc4[C@H]3CC[C@@]21C [Ethinyl estradiol (EE), Ethinyl estradiol]",Central Value Ratio (90% CI) AUC,[1]; [5],1.40
same,Central Value Ratio (90% CI) Cmax,[1]; [5],1.30
same,Central Value Ratio (90% CI) Cmin,[1]; [5],1.56
same,Central Value Ratio (90% CI) AUC,[1]; [6],1.28
same,Central Value Ratio (90% CI) Cmax,[1]; [6],1.31
same,Central Value Ratio (90% CI) Cmin,[1]; [6],1.38
CC[C@H](C)C(=O)O[C@H]1C[C@@H](C)C=C2C=C[C@H](C)[C@H](CC[C@@H](O)C[C@@H](O)CC(=O)O)[C@H]21 [Lovastatin acid],Central Value Ratio (90% CI) AUC,[1]; [10],4.10
same,Central Value Ratio (90% CI) Cmax,[1]; [10],5.73
COc1ccc2c(c1)[C@]13CCCC[C@@H]1[C@H](C2)N(C)CC3 [Dextromethorphan],Central Value Ratio (90% CI) AUC,[1]; [20],0.75
same,Central Value Ratio (90% CI) Cmax,[1]; [20],0.70
Cc1nnc(C(=O)NC(C)(C)c2nc(C(=O)NCc3ccc(F)cc3)c(O)c(=O)n2C)o1 [Raltegravir],Central Value Ratio (90% CI) AUC,[1]; [21],1.47
same,Central Value Ratio (90% CI) Cmax,[1]; [21],1.34
same,Central Value Ratio (90% CI) Cmin,[1]; [21],2.64
